Patent publication US11192891B2, “Diazaspiro ROCK inhibitors” (BRISTOL-MYERS SQUIBB COMPANY, priority 2017, dated 2021)

These compounds were tested against ROCK2 (Homo sapiens, UniProt O75116) (assay: ROCK kinase inhibition assay, FITC peptide substrate, LABCHIP 3000 readout). Conditions: 5 μM ATP, 1.5 μM peptide substrate.
Assay type: biochemical
Method in brief: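 Tested across a concentration range, with percent inhibition of kinase activity derived per concentration. Peptide phosphorylation, initiated by adding the Rho kinase variant (final DMSO <2%), was quenched with EDTA and substrate/product resolved by mobility shift.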

Chain of ROCK2 (O75116 whole entry, species assumed): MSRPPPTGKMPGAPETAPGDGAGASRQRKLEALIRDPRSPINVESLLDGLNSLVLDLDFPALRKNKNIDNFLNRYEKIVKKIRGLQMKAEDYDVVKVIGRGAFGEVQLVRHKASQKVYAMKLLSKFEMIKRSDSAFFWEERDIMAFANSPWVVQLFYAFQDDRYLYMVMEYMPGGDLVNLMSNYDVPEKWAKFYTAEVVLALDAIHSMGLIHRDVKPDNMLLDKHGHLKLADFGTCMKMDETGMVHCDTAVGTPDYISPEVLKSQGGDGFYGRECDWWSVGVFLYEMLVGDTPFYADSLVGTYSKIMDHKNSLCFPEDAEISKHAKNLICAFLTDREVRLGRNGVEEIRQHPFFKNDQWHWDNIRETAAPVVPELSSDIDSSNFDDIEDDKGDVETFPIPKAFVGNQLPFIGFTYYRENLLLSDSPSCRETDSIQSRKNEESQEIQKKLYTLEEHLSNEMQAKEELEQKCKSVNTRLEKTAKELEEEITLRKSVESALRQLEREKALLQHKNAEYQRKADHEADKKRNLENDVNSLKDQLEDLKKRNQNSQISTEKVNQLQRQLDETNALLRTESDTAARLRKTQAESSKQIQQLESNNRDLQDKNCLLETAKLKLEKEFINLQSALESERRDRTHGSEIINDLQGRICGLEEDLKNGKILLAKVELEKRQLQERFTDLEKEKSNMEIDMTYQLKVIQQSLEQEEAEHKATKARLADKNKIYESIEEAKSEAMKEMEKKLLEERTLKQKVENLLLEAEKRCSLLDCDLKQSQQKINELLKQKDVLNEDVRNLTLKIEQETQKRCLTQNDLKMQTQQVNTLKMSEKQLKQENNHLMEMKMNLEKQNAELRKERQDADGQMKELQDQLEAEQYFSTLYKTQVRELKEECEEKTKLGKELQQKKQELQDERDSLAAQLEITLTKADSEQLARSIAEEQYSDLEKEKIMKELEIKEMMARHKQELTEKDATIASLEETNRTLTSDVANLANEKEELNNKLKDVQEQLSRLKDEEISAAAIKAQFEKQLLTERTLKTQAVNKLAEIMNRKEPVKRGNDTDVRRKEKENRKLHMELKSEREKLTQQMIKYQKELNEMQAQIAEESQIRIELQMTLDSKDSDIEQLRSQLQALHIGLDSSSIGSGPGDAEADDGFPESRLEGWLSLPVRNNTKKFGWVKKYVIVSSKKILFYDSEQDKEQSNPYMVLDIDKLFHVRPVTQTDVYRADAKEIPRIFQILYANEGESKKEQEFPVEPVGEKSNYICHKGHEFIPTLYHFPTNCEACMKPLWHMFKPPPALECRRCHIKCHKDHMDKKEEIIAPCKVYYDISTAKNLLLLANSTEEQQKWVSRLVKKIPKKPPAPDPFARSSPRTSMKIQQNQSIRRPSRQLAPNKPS

| Structure (SMILES) | IC50 [nM] |
| --- | --- |
| COc1cc(N2CCC3(CCN(C(=O)c4ccc(N(C)C)cc4)CC3)C2=O)ccc1-c1cn[nH]c1 [Example 21, 8-[4-(dimethylamino)benzoyl]-2-[3-methoxy-4-(1H-pyrazol-4-yl)phenyl]-2,8-diazaspiro[4.5]decan-1-one] | 16 |
| COc1ccc(C(=O)N2CCC3(CC2)CC(=O)N(c2ccc(-c4cn[nH]c4)c(OC)c2)C3)cc1 [Example 47, 2-[3-methoxy-4-(1H-pyrazol-4-yl)phenyl]-8-(4-methoxybenzoyl)-2,8-diazaspiro[4.5]decan-3-one] | 306 |
| COc1cc(N2CCC3(CCN(C(=O)c4ccc5c(cnn5C)c4)CC3)C2=O)ccc1-c1cn[nH]c1 [Example 152, 2-[3-methoxy-4-(1H-pyrazol-4-yl)phenyl]-8-(1-methyl-1H-indazole-5-carbonyl)-2,8-diazaspiro[4.5]decan-1-one] | 6.2 |
| COc1cc(N2CCC3(CCN(C(=O)c4ccc(N5CCN(Cc6cccc(NS(C)(=O)=O)c6)CC5)cc4)CC3)C2=O)ccc1-c1cn[nH]c1 [Example 235, N-(3-{[4-(4-{2-[3-methoxy-4-(1H-pyrazol-4-yl)phenyl]-1-oxo-2,8-diazaspiro[4.5]decane-8-carbonyl}phenyl)piperazin-1-yl]methyl}phenyl)methanesulfonamide] | 0.2 |
| COc1cc(N2CCC3(CCN(C(=O)c4ncc(OC)c5ccccc45)CC3)C2=O)ccc1-c1cn[nH]c1 [Example 90, 2-[3-methoxy-4-(1H-pyrazol-4-yl)phenyl]-8-(4-methoxyisoquinoline-1-carbonyl)-2,8-diazaspiro[4.5]decan-1-one] | 127 |
| COc1cc(N2CCC3(CCN(C(=O)c4ccc(-n5ccncc5=O)cc4)CC3)C2=O)ccc1-c1cn[nH]c1 [Example 146, 2-[3-methoxy-4-(1H-pyrazol-4-yl)phenyl]-8-[4-(2-oxo-1,2-dihydropyrazin-1-yl)benzoyl]-2,8-diazaspiro[4.5]decan-1-one] | 12 |
| COc1cc(N2CCC3(CCN(C(=O)c4ccc(-c5ccccc5)cc4)CC3)C2=O)ccc1-c1cn[nH]c1 [Example 61, 8-{[1,1′-biphenyl]-4-carbonyl}-2-[3-methoxy-4-(1H-pyrazol-4-yl)phenyl]-2,8-diazaspiro[4.5]decan-1-one] | 18 |
| COc1ccc2cc(C(=O)N3CCC4(CC3)CCN(c3ccc(-c5cn[nH]c5)c(OC)c3)C4=O)n(C)c2c1 [Example 170, 8-(6-methoxy-1-methyl-1H-indole-2-carbonyl)-2-[3-methoxy-4-(1H-pyrazol-4-yl)phenyl]-2,8-diazaspiro[4.5]decan-1-one] | 118 |
| COc1cc(N2CCC3(CCN(C(=O)c4ccc(N5CCN(Cc6cccc(Cl)c6)CC5)cc4)CC3)C2=O)ccc1-c1cn[nH]c1 [Example 186, 8-(4-{4-[(3-chlorophenyl)methyl]piperazin-1-yl}benzoyl)-2-[3-methoxy-4-(1H-pyrazol-4-yl)phenyl]-2,8-diazaspiro[4.5]decan-1-one] | 1.2 |
| COc1cc(N2CCC3(CCN(C(=O)c4ccc(N5CCN(Cc6nccs6)CC5)cc4)CC3)C2=O)ccc1-c1cn[nH]c1 [Example 236, 2-[3-methoxy-4-(1H-pyrazol-4-yl)phenyl]-8-(4-{4-[(1,3-thiazol-2-yl)methyl]piperazin-1-yl}benzoyl)-2,8-diazaspiro[4.5]decan-1-one] | 2.7 |
| COc1cc(N2CCC3(CCN(C(=O)c4ccc(N5CCN(CC6CCCC6)CC5)cc4)CC3)C2=O)ccc1-c1cn[nH]c1 [Example 230, 8-{4-[4-(cyclopentylmethyl)piperazin-1-yl]benzoyl}-2-[3-methoxy-4-(1H-pyrazol-4-yl)phenyl]-2,8-diazaspiro[4.5]decan-1-one] | 2.2 |
| COc1cc(N2CCC3(CCN(C(=O)c4csc(-c5cccnc5)n4)CC3)C2=O)ccc1-c1cn[nH]c1 [Example 78, 2-[3-methoxy-4-(1H-pyrazol-4-yl)phenyl]-8-[2-(pyridin-3-yl)-1,3-thiazole-4-carbonyl]-2,8-diazaspiro[4.5]decan-1-one] | 76 |
| COc1cc(N2CCC3(CCN(C(=O)c4ccc(N5CCN(CC(C)(C)C)CC5)cc4)CC3)C2=O)ccc1-c1cn[nH]c1 [Example 241, 8-{4-[4-(2,2-dimethylpropyl)piperazin-1-yl]benzoyl}-2-[3-methoxy-4-(1H-pyrazol-4-yl)phenyl]-2,8-diazaspiro[4.5]decan-1-one] | 0.4 |
| COc1cc(N2CCC3(CCN(S(=O)(=O)c4ccc(S(N)(=O)=O)cc4)CC3)C2=O)ccc1-c1cn[nH]c1 [Example 213, 4-({2-[3-methoxy-4-(1H-pyrazol-4-yl)phenyl]-1-oxo-2,8-diazaspiro[4.5]decan-8-yl}sulfonyl)benzene-1-sulfonamide] | 456 |

Now from value to compound:

| IC50 [nM] | Structure (SMILES) |
| --- | --- |
| 1480 | COc1cc(N2CCC3(CCN(C(=O)Nc4cccnc4)CC3)C2=O)ccc1-c1cn[nH]c1 [Example 214, 2-[3-methoxy-4-(1H-pyrazol-4-yl)phenyl]-1-oxo-N-(pyridin-3-yl)-2,8-diazaspiro[4.5]decane-8-carboxamide] |
| 326 | O=C(c1ccccc1)N1CCC2(CC1)CCN(c1ccc(-c3cn[nH]c3)cc1)C2=O [Example 1, 8-benzoyl-2-[4-(1H-pyrazol-4-yl)phenyl]-2,8-diazaspiro[4.5]decan-1-one] |
| 4.2 | COc1cc(N2CCC3(CCN(C(=O)c4ccc(-n5ccncc5=O)cc4F)CC3)C2=O)ccc1-c1cn[nH]c1 [Example 136, 8-[2-fluoro-4-(2-oxo-1,2-dihydropyrazin-1-yl)benzoyl]-2-[3-methoxy-4-(1H-pyrazol-4-yl)phenyl]-2,8-diazaspiro[4.5]decan-1-one] |
| 46 | COc1cc(N2CCC3(CCN(S(=O)(=O)c4ccc5ncsc5c4)CC3)C2=O)ccc1-c1cn[nH]c1 [Example 211, 8-(1,3-benzothiazole-6-sulfonyl)-2-[3-methoxy-4-(1H-pyrazol-4-yl)phenyl]-2,8-diazaspiro[4.5]decan-1-one] |
| 186 | COc1ccc2c(OC)ccc(C(=O)N3CCC4(CC3)CCN(c3ccc(-c5cn[nH]c5)c(OC)c3)C4=O)c2c1 [Example 199, 8-(4,7-dimethoxynaphthalene-1-carbonyl)-2-[3-methoxy-4-(1H-pyrazol-4-yl)phenyl]-2,8-diazaspiro[4.5]decan-1-one] |
| 12 | COc1cc(N2CCC3(CCN(C(=O)c4ccc(N5CC(=O)NC5=O)cc4)CC3)C2=O)ccc1-c1cn[nH]c1 [Example 147, 1-(4-{2-[3-methoxy-4-(1H-pyrazol-4-yl)phenyl]-1-oxo-2,8-diazaspiro[4.5]decane-8-carbonyl}phenyl)imidazolidine-2,4-dione] |
| 78 | COc1cc(N2CCC3(CCN(C(=O)c4cnc5ccccc5c4)CC3)C2=O)ccc1-c1cn[nH]c1 [Example 74, 2-[3-methoxy-4-(1H-pyrazol-4-yl)phenyl]-8-(quinoline-3-carbonyl)-2,8-diazaspiro[4.5]decan-1-one] |
| 443 | COc1cc(N2CCC3(CCN(C(=O)c4cscn4)CC3)C2=O)ccc1-c1cn[nH]c1 [Example 86, 2-[3-methoxy-4-(1H-pyrazol-4-yl)phenyl]-8-(1,3-thiazole-4-carbonyl)-2,8-diazaspiro[4.5]decan-1-one] |
| 843 | COc1cc(N2CCC3(CCN(S(=O)(=O)c4ccc(S(C)(=O)=O)cc4)CC3)C2=O)ccc1-c1cn[nH]c1 [Example 218, 8-(4-methanesulfonylbenzenesulfonyl)-2-[3-methoxy-4-(1H-pyrazol-4-yl)phenyl]-2,8-diazaspiro[4.5]decan-1-one] |
